Results: PMC10002828, “FRET assay for live-cell high-throughput screening of the cardiac SERCA pump yields multiple classes of small-molecule allosteric modulators” (Research Square, 2023)
Structures can show the parent of a compound that is named as a salt. Where two headings read alike, the source gives them in different places.

What was measured:
SERCA [1] = conditions: cited from earlier work
SERCA2a [2] = target: T1, SERCA2a (Sus scrofa, UniProt P11607); assay: Fluo-4 oxalate-supported Ca2+-transport assay in pig cardiac SR vesicles; type: biochemical; conditions: for coupling ratio (CR), VMAX (Ca2+-transport) / VMAX (Ca2+-ATPase): at VMAX, control 0.66; for Ca2+-transport increase at VMID (Δ): midpoint Ca2+; for Ca2+-transport increase at VMID (Δ) / C10, Ca2+-transport at VMID: pCa 6.2; for Ca2+-transport change at VMAX (Δ, increase positive): saturating Ca2+
T1 construct: SERCA2a in native SR preparations; from tissue; host or cells: porcine left ventricular tissue (cardiac SR vesicles)
Protocol: (§1) Cardiac SR vesicles were isolated from fresh porcine left ventricular tissue using differential centrifugation of the homogenized tissue as previously described. The SR vesicles were flash-frozen and stored at −80°C until needed.
Ca^2+-transport assays were performed with similar porcine SR samples as in the Ca^2+-ATPase assays described above. The compound effect on the Ca^2+-transport activity of SERCA2a was determined using an oxalate-supported assay in which the change in fluorescence in a Ca-sensitive dye, Fluor-4, was determined as previously described. A buffered solution containing 50 mM MOPS (pH 7.0), 100 mM KCl, 30 mg/mL sucrose, 1 mM EGTA, 10 mM potassium oxalate, 2 μM Fluo-4, 30 μg/mL porcine cardiac SR vesicles, CaCl2 calculated to reach the free [Ca^2+] (pCa 8.0, 6.2, and 5.4), and compound (0.048 to 50μM) was dispensed into 384-well black walled, transparent bottomed plates (Greiner Bio-One) containing the tested small molecule and incubated at 22°C for 20 minutes while covered and protected from light. To start the reaction, MgATP was added to a final concentration of 5 mM, and the decrease in 485-nm excited fluorescence of Fluo-4 was monitored at 520 nm for 15 min using a FLIPR Tetra (Molecular Devices, San Jose, CA).
(§2) SERCA2a ATPase (or Ca-transport) activity at pCa 8.0 was subtracted from pCa 5.4 and pCa 6.2 values. The % effect ATPase (or Ca-transport transport) activity was normalized to the DMSO only (or 2CS in the absence of compound), and then were plotted against [Ca], and the curves were fitted using the Hill function, where V is the initial ATPase rate (or fluorescence rate), VMAX is the ATPase (or Ca^2+-transport) at saturating [Ca^2+], and EC50 or pKCa, or VM!D is the apparent Ca^2+ dissociation constant as described previously ATPase (or Ca^2+-transport) at (Midpoint Ca^2+)[44].

[3] = target: T2, human two-color SERCA2a (2CS) biosensor (Homo sapiens, UniProt P16615); assay: FLT/FRET concentration-response of two-color SERCA2a (2CS) biosensor in live HEK293 cells; type: cell-based
T2 construct: expressed in transfected cells
Protocol: FRET CRC assay plates (0.78–100 μM compound range) with at least ten different compound concentrations were made by adding the appropriate volume of compound or DMSO into black 384 well plates (Greiner Bio-One) using a Mosquito HV (SPTLabTech, United Kingdom). Subsequent ATPase and Ca^2+-transport CRC assay plates (0–50 μM compound range) with repurchased compounds were made in a similar manner using with the Echo 550 (Beckman Coulter) using either 384 well transparent plates (Greiner Bio-One) or black-walled plates with transparent bottoms (Greiner Bio-One), respectively.
On each day of screening, cells were harvested, washed three times with PBS, and centrifuged at 300g for 5min. Cells were filtered using a 70μm cell strainer and diluted to 1–2 × 10^6 cells/mL. Cell concentration and viability were assessed using the Cell countess (Invitrogen) and trypan blue assay. During assays, cells were constantly and gently stirred using a magnetic stir bar at room temperature, keeping the cells in suspension and evenly distributed to avoid clumping. Cells were dispensed at 5μL or 50μL per well into assay plates (dispensed into 40 assay plates, each containing 1536 wells) pre-plated with either compound or DMSO using a Multdrop Combi liquid dispenser (Thermo Fisher Scientific, Pittsburg, PA) and sealed until needed. […] The FRET HTS screen was performed over two days with a custom HTS fluorescence lifetime plate reader (FLT-PR) and spectral plate reader (SUPR) provided by Photonic Pharma LLC (Minneapolis, MN)[18]. […]
A detailed description of the high-throughput fluorescence lifetime plate reader (FLT-PR) and spectral unmixing plate reader (SUPR), manufactured by Fluorescence Innovations Inc and provided by Photonic Pharma, LLC was described previously[18],[21]. Briefly, for lifetime measurement with the FLT-PR, the observed donor-fluorescence waveform, F (t) was fit by a convolution of the measured instrument response function (IRF) and a single-exponential decay to obtain the lifetime (τ) of the donor fluorophore[57] in the absence (τD) and presence (τDA) of the acceptor as described in Eq. (1): 1 F(t)=Ae^(−t/τ) FRET efficiency (E) was determined as the fractional decrease of donor FLT in the absence and in the presence of acceptor as in Eq. (2): 2 E=1−τDA/τD E was determined in the presence and absence of compound and normalized relative to E of the DMSO control. For spectral detection with the SUPR, the observed fluorescence emission spectrum F(λ) was fit by least-squares minimization of a linear combination of component spectra for donor (D), acceptor (A), cellular autofluorescence (C) and water Raman (W) as described previously. […]

SERCA2a [4] = target: T1, SERCA2a; assay: NADH-linked enzyme-coupled Ca2+-ATPase assay in pig cardiac SR vesicles; type: biochemical; conditions: for functional category (Ca2+-ATPase and Ca2+-transport, VMAX and VMID): based on both Ca2+-ATPase and Ca2+-transport assays; for Ca2+-ATPase increase at VMID (ΔVMID): midpoint Ca2+; for Ca2+-ATPase increase at VMAX (ΔVMAX): saturating Ca2+
Protocol: as §1
Functional assays were performed using porcine cardiac SR vesicles. An enzyme-coupled, NADH-linked ATPase assay was used to measure SERCA ATPase activity in 384-well microplates. Each well contained 50 mM MOPS (pH 7.0), 100 mM KCl, 1 mM EGTA, 0.2 mM NADH, 1 mM phosphoenol pyruvate, 10 IU/mL of pyruvate kinase, 10 IU/mL of lactate dehydrogenase, 7 μM of the calcium ionophore A23187 (Sigma), and CaCl2 was added to set free [Ca^2+] to three different concentrations. The Ca^2+-ATPase were measured at VMAX (saturating, pCa 5.4), VM!D (subsaturating, midpoint, pCa 6.2), and basal (non-activating, pCa 8.0) [Ca^2+]. 10 μg/mL of SR vesicle, calcium, compound (0.048 to 50 μM), and assay mix were incubated for 20 min at room temperature before measurement of functional assays with each of the 18 hit compounds, because a shorter incubation time than the FRET live-cell assays achieved optimal responses. The assay was started upon the addition of MgATP at a final concentration of 5 mM (total volume to 80 μL), and absorbance was read in a SpectraMax Plus microplate spectrophotometer from Molecular Devices (Sunnyvale, CA) at 340nm.
as §2

[5] = parameters: method as in PMID 21878191; conditions: human usage; cited from earlier work
SERCA [6] = system: SERCA; parameters: method as in PMID 32397211; conditions: assay not named; read-out: EC50 (affinity); cited from earlier work
[7] = 2CS biosensor, live HEK293 cells, CRC 0.78–100 μM compound, read-out: FRET EC50

T1 sequence (P11607 1-997 isoform P11607-2): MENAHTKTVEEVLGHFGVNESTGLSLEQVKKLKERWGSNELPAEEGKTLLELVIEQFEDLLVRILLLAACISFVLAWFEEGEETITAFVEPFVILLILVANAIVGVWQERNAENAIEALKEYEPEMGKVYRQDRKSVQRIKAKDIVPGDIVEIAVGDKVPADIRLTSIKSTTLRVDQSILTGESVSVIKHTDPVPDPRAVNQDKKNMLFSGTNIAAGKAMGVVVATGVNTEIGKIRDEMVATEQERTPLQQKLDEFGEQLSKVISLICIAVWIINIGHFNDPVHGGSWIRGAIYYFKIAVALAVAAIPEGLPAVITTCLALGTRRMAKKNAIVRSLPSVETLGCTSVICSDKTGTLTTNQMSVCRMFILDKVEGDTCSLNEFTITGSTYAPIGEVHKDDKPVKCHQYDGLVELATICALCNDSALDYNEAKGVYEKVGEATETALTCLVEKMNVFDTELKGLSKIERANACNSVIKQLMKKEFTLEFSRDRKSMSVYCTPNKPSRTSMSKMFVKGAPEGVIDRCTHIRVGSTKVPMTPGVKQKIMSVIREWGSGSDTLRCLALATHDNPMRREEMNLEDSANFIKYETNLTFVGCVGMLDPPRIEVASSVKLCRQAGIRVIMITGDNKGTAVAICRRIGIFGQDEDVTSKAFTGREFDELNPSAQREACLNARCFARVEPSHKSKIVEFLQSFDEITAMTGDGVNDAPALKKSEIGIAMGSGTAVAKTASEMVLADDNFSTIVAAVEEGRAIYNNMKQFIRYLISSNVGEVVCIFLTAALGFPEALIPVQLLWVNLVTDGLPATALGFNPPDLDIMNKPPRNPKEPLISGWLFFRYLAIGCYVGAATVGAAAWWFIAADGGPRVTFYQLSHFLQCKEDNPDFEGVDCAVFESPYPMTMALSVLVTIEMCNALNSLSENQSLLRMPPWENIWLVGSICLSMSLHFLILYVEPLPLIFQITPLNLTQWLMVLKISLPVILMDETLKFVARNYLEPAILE
T2 sequence (P16615 1-997 isoform P16615-2): as the sequence (P11607 1-997 isoform P11607-2) above, with K371R, K403N, P538S, M570L, N576H, E667D, S713A, T865S, V889I, L963V counted along it

With CCCCN(CC)c1nc(C)nc2c1c(C)cn2-c1c(C)cc(C)cc1C [CP-154526] as the molecule, how does the “effect on SERCA” value (SERCA [1]) read?
Its value is “increases the apparent Ca^2+ affinity of SERC2a”.

For CCn1nc(C)c(CN2CCCC(Nc3ccc(C(C)C)cc3)C2)c1C (stereo not drawn) [Compound 7], which “coupling ratio (CR), VMAX (Ca2+-transport) / VMAX (Ca2+-ATPase)” value (SERCA2a [2]) is on record?
Its value is 0.74.

And the “Ca2+-transport increase at VMID (Δ)” value (SERCA2a [2])?
The value was 19%.

What about the “C10, Ca2+-transport at VMAX” value (SERCA2a [2]; pCa 5.4) of the same molecule?
Its value is 14 µM.

And the “C10, Ca2+-transport at VMID” value (SERCA2a [2])?
The value was 21 µM.

What about the “Ca2+-transport change at VMAX (Δ, increase positive)” value (SERCA2a [2]; pCa 5.4) of the same molecule?
Its value is 24%.

And the EC50 [3, 7]?
Its EC50 is 0.3 µM.

And the “functional category (Ca2+-ATPase and Ca2+-transport, VMAX and VMID)” value (SERCA2a [4])?
The value was “activates both Ca^2+-ATPase and Ca^2+-transport”.

What about the “Ca2+-ATPase increase at VMID (ΔVMID)” value (SERCA2a [4]; pCa 6.2) of the same molecule?
The value was 7%.

And the “C10 (compound concentration that changes function by 10%), Ca2+-ATPase at VMAX” value (SERCA2a [4]; pCa 5.4)?
The value was 25 µM.

What about the “C10, Ca2+-ATPase at VMID” value (SERCA2a [4]; pCa 6.2) of the same molecule?
Its value is 25 µM.

What about the “Ca2+-ATPase increase at VMAX (ΔVMAX)” value (SERCA2a [4]; pCa 5.4) of the same molecule?
Its value is 14%.

For OCC1(Cc2ccccc2F)CCCN(Cc2cc3c(cc2Cl)OCO3)C1 (stereo not drawn) [Compound 12], which “Ca2+-transport inhibition” value (SERCA2a [2]) is on record?
Its value is “completely inhibited”.

And the EC50 ([3]; assay not given, probably FRET EC50 of Table 1, read-out: EC50 (affinity), compared with thapsigargin)?
Its EC50 is 3.8 µM.

And the “Ca2+-ATPase inhibition at VMAX” value (SERCA2a [4]; pCa 5.4)?
The value was 93%.

What about the “Ca2+-ATPase inhibition at VMID” value (SERCA2a [4]; pCa 6.2) of the same molecule?
The value was 90%.

With O=C(c1cc(O)c(O)c([N+](=O)[O-])c1)c1ccccc1F [Ro 41–0960] as the molecule, how does the “effect on SERCA” value (SERCA [1]) read?
Its value is “increases SERCA maximal activity in high Ca^2+”.

What does the source list for C[C@]12CCC(=NOCCN)C[C@@H]1C(=O)C[C@@H]1[C@@H]2CC[C@]2(C)C(=O)CC[C@@H]12 [istaroxime, (E,Z)-3-((2-aminoethoxy)imino) androstane-6,17-dione hydrochloride)]?
clearance rate [5]: high clearance rate; gastrointestinal absorption [5]: poor gastrointestinal absorption; metabolic transformation [5]: extensive metabolic transformation; effect on SERCA (SERCA [1]): stimulates SERCA activity

For C/C=C(/C)C(=O)O[C@H]1C(C)=C2[C@H]([C@@H]1OC(=O)CCCCCCC)[C@@](C)(OC(C)=O)C[C@H](OC(=O)CCC)[C@@]1(O)[C@H]2OC(=O)[C@@]1(C)O [thapsigargin], which EC50 (SERCA [6]) is on record?
Its EC50 is roughly 0.0075 µM.

With Cc1ccc2cccc(NC(=O)c3ccc(OC(C)C)cc3)c2n1 [CDN1163] as the molecule, how does the “effect on SERCA” value (SERCA [1]) read?
Its value is “stimulates Ca^2+ transport”.

What does the source list for O=C(c1ccc(-c2ccc(O)cc2)nc1)N1CCC(CCc2ccccc2)CC1 [Compound 6]?
coupling ratio (CR), VMAX (Ca2+-transport) / VMAX (Ca2+-ATPase) (SERCA2a [2]): 0.48; Ca2+-transport increase at VMID (Δ) (SERCA2a [2]): 17%; C10, Ca2+-transport at VMAX (SERCA2a [2]; pCa 5.4): 15 µM; Ca2+-transport inhibition at VMAX (SERCA2a [2]; pCa 5.4): 21%; C10, Ca2+-transport at VMID (SERCA2a [2]): 4 µM; EC50 ([3]; 2CS biosensor, normalized FRET E, read-out: FRET half maximal effect (EC50), Figure 6 legend): 7.1 ± 0.2 µM; functional category (Ca2+-ATPase and Ca2+-transport, VMAX and VMID) (SERCA2a [4]): activates Ca^2+-ATPase with divergent effects on Ca^2+-transport; Ca2+-ATPase increase at VMID (ΔVMID) (SERCA2a [4]; pCa 6.2): 30%; C10 (compound concentration that changes function by 10%), Ca2+-ATPase at VMAX (SERCA2a [4]; pCa 5.4): 9.7 µM; EC50 (SERCA2a [4]; pCa 5.4, read-out: EC50, Ca2+-ATPase at VMAX): 11 µM; C10, Ca2+-ATPase at VMID (SERCA2a [4]; pCa 6.2): 8.7 µM; EC50 (SERCA2a [4]; pCa 6.2, read-out: EC50, Ca2+-ATPase at VMID): 11 µM

Which results are given for COc1ccc(C(=O)C2CCCN(Cc3nc(-c4ccc(F)cc4)cs3)C2)c(OC)c1 (stereo not drawn) [Compound 8]?
coupling ratio (CR), VMAX (Ca2+-transport) / VMAX (Ca2+-ATPase) (SERCA2a [2]): 0.4; Ca2+-transport increase at VMID (Δ) (SERCA2a [2]): 7%; C10, Ca2+-transport at VMAX (SERCA2a [2]; pCa 5.4): 25 µM; Ca2+-transport change at VMAX (Δ, increase positive) (SERCA2a [2]; pCa 5.4): 10%; EC50 [3, 7]: 4.9 µM; functional category (Ca2+-ATPase and Ca2+-transport, VMAX and VMID) (SERCA2a [4]): activates both Ca^2+-ATPase and Ca^2+-transport; Ca2+-ATPase increase at VMID (ΔVMID) (SERCA2a [4]; pCa 6.2): 31%; C10, Ca2+-ATPase at VMAX (SERCA2a [4]; pCa 5.4): 4.3 µM; C10, Ca2+-ATPase at VMID (SERCA2a [4]; pCa 6.2): 7.8 µM; Ca2+-ATPase increase at VMAX (ΔVMAX) (SERCA2a [4]; pCa 5.4): 49%
